Experimental data published in PubChem BioAssay (NCI).
Values joined by “and” are separate entries in the source; they are usually repeats but may differ in a detail not shown here. Identical values can stand only once.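 48-hour exposure; five concentrations; linearly interpolated endpoints. GI50 = concentration required for 50% inhibition of growth. At the TGI there is no net growth.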

Key:
Assay in all cases: NCI anticancer screen, dose series, 48 h
SF-268 CNS = tested on: SF-268 CNS
SNB-75 CNS = tested on: SNB-75 CNS
HOP-92 NSCLC = tested on: HOP-92 NSCLC
HT29 colon = tested on: HT29 colon
U251 CNS = tested on: U251 CNS
SNB-19 CNS = tested on: SNB-19 CNS
A498 renal = tested on: A498 renal
OVCAR-5 ovarian = tested on: OVCAR-5 ovarian
HS 578T breast = tested on: HS 578T breast
HCC-2998 colon = tested on: HCC-2998 colon

Row | Structure (SMILES) | GI50 (SF-268 CNS) | TGI (SF-268 CNS) | GI50 (SNB-75 CNS) | TGI (SNB-75 CNS) | GI50 (HOP-92 NSCLC) | TGI (HOP-92 NSCLC) | GI50 (HT29 colon) | TGI (HT29 colon) | GI50 (U251 CNS) | TGI (U251 CNS) | GI50 (SNB-19 CNS) | TGI (SNB-19 CNS) [µM] | GI50 (A498 renal) | TGI (A498 renal) | GI50 (OVCAR-5 ovarian) | TGI (OVCAR-5 ovarian) [µM] | GI50 (HS 578T breast) | TGI (HS 578T breast) [µM] | GI50 (HCC-2998 colon) | TGI (HCC-2998 colon)
1 | C=CCn1c(=O)c2cnc(Nc3ccc(N4CCN(C)CC4)cc3)nc2n1-c1cccc(C(C)(C)O)n1 | 1.49 µM and 1.69 µM | 51.9 µM and > 10 µM | 1440 nM and 717 nM | 8.68 µM and 6.37 µM | 131 nM and 221 nM | 3.92 µM and 2.38 µM | 0.207 µM and 0.286 µM | 0.643 µM and > 3.82 µM | 0.707 µM and 1.18 µM | 19.9 µM and > 10 µM | 1.17 µM and 0.526 µM | > 100 | 31.9 nM and 57.2 nM | 0.364 µM and 0.448 µM | 0.557 µM and 1.05 µM | > 100 | 0.894 µM and 0.471 µM | > 60 | 0.388 µM and 1.13 µM | 7.26 µM and > 7.72 µM
2 | CCN(CC)C(=O)COc1cc2c(O)c3c(O)c(C)c4c(c13)C(=O)C(C)(OC=CC(OC)C(C)C(OC(C)=O)C(C)C(O)C(C)C(O)C(C)C=CC=C(C)C(=O)N2)O4 (stereo unspecified) | – | > 100 µM | – | > 100 µM | – | > 100 µM | – | > 100 µM | – | > 100 µM | – | > 100 | – | > 100 µM | – | > 100 | – | > 100 | – | > 100 µM
3 | O=C1CSC(c2ccccc2O)N1c1nnc(Cn2ccnc2)o1 (stereo unspecified) | 10.8 µM | 48 µM | 11600 nM | > 100 µM | 2230 nM | 28.9 µM | 5 µM | > 100 µM | 11.7 µM | 63.6 µM | – | – | 21000 nM | 46 µM | 22.1 µM | 50.7 | 20.5 µM | > 100 | 22.8 µM | 89.5 µM
4 | CC1=C(C(=O)Nc2ccc(F)c(Cl)c2)C(c2ccccc2O)NC(=O)N1 (stereo unspecified) | > 100 µM | > 100 µM | 40000 nM | > 100 µM | 81600 nM | > 100 µM | 41.4 µM | > 100 µM | > 100 µM | > 100 µM | > 100 µM | > 100 | > 100000 nM | > 100 µM | > 100 µM | > 100 | 76.3 µM | > 100 | > 100 µM | > 100 µM
5 | COc1cc2c(cc1-c1coc3cc(OCC=C(C)C)ccc3c1=O)OCO2 | – | > 100 µM | – | > 100 µM | – | > 100 µM | – | – | – | > 100 µM | – | > 100 | – | > 100 µM | – | > 100 | – | > 100 | – | 44.8 µM
6 | CCOC1OC(=O)[C@H]2[C@@H]1[C@@H]1CC[C@H]2O1 (stereo partly specified) | > 100 µM | > 100 µM | – | > 100 µM | > 100000 nM | > 100 µM | 24.8 µM | > 76.3 µM | > 100 µM | > 100 µM | > 100 µM | > 100 | > 100000 nM | > 100 µM | > 100 µM | > 100 | > 100 µM | > 100 | 13.4 µM | 29.5 µM
7 | NNc1c2ccccc2nc2ccccc12 | 5.94 µM | > 100 µM | 2670 nM | 17.8 µM | 5190 nM | 43.6 µM | 3.28 µM | 16.1 µM | 4.89 µM | 40.6 µM | 5.89 µM | > 100 | 1430 nM | 17.5 µM | 15.8 µM | 54.1 | 16 µM | > 100 | 7.59 µM | 63.2 µM
8 | O=[N+]([O-])c1ccc2c(Nc3ccccc3-c3ccccc3Nc3c4ccccc4nc4cc([N+](=O)[O-])ccc34)c3ccccc3nc2c1 | – | 49.8 µM | – | 34.5 µM | – | 24.4 µM | – | 26.7 µM | – | 22.9 µM | – | 43.8 | – | 52.3 µM | – | 56.8 | – | 14.9 | – | 16.6 µM
